For this assay, the system named is G. duodenalis BRIS/91/HEPU/1279. Briefly: Primary Giardia screen at 10 µM (live-cell imaging, automated counting). In kind it is cell-based, Giardia duodenalis. The following applies: for % Inhibition n=1 24h / % Inhibition n=1 48h: first singlicate assay; for % Inhibition n=2 24h / % Inhibition n=2 48h: re-assessment. As for the experimental part: Each compound was assessed in singlicate, at a final concentration of 10 μM (0.4 μL of a 5 mM stock; diluted to a final volume of 200 μL in culture medium; 0.2% DMSO). […] Plates were incubated in sealed chambers filled with 3% O2, 5% CO2 in N2 and growth was assessed at 24 and 48 h using live cell imaging and automated counting as previously described. Growth inhibition was calculated by subtracting media only background counts and determining percentage growth relative to vehicle (0.2% DMSO) controls. The reliability of these assays was assessed by calculating Z’ factors for each plate as previously described.

The record followed here is publication PMC9775191, “A Subset Screen of the Compounds Australia Scaffold Library Identifies 7-Acylaminodibenzoxazepinones as Potent and Selective Hits for Anti-Giardia Drug Discovery” (Biomedicines, 2022).

For the compound `O=C(NCc1ccco1)c1cnn2c1N[C@@H](c1ccc(Br)cc1)C[C@H]2C(F)(F)F` (relative stereo) [SN00783428], the “Average % Inhibition 24h” value was 15.1%, the “% Inhibition n=1 24h” value stood at 27.8%, the “% Inhibition n=2 24h” value was found to be 2.5% and the “Average % Inhibition 48h” value is recorded as 18.5%. The “% Inhibition n=1 48h” value was 35.3% and the “% Inhibition n=2 48h” value worked out at 1.8%. In the case of `Cc1ccc([C@@H]2C[C@H](c3ccccc3)n3nnnc3N2)cc1` (relative stereo) [SN00783518], the “Average % Inhibition 24h” value was 10.7%, the “% Inhibition n=1 24h” value amounted to 21.3%, the “% Inhibition n=2 24h” value was found to be 0.0% and the “Average % Inhibition 48h” value is 20.0%. For the same compound, the “% Inhibition n=1 48h” value turned out to be 40.1% and the “% Inhibition n=2 48h” value was found to be 0.0%. As to `CC(=O)N1N=C2C3CCN(CC3)[C@@H]2[C@@H]1c1cccc2ccccc12` (relative stereo) [SN00783777], the “% Inhibition n=1 48h” value is 0.0%.

As for `COc1cccc([C@H]2C[C@@H](C(F)(F)F)n3ncc(C(=O)N4CCCCC4)c3N2)c1` (relative stereo) [SN00783803], the “% Inhibition n=1 48h” value came out at 0.0%.

As to `CCc1ccc(NC(=O)[C@@H]2c3cc(OC)c(OC)cc3C(=O)N3CCCC[C@@H]23)cc1` (relative stereo) [SN00784165], the “% Inhibition n=1 48h” value is listed as 28.1%. With `O=C(NCc1ccccc1Cl)[C@H]1[C@H]2C(=O)N(Cc3cccs3)C[C@]23C=C[C@H]1O3` (relative stereo) [SN00784242], the “% Inhibition n=1 48h” value is 22.4%. In the case of `CCCNC(=O)[C@@H]1[C@@H]2C=C[C@@]3(CN(Cc4ccccc4Cl)C(=O)[C@H]13)O2` (relative stereo) [SN00784246], the “% Inhibition n=1 48h” value was found to be 16.0%. On the same count and under the same terms, the same measure for `CCCN(C(=O)c1cccc(NC(=O)[C@H]2[C@@H]3C[C@@H]4[C@H]2C(=O)O[C@@H]4C3)c1)c1ccccc1F` (relative stereo) [SN00785932]: 2.8%. On the same count and under the same terms, the same measure for `Cc1ccc(S(=O)(=O)[C@H]2CS(=O)(=O)C[C@@H]2N2CCC(C(N)=O)CC2)cc1` (relative stereo) [SN00786616]: 0.0%. Turning to `CSc1ccc(NC(=O)N2C[C@@H]3C[C@H]2C[C@@H]3NC(=O)c2cccs2)cc1` (relative stereo) [SN00800991], the “% Inhibition n=1 48h” value was 17.8%. On the same count and under the same terms, to `C[C@@]1(O)CCN(C(=O)c2cccc(F)c2)C[C@H]1N1CCCC1` (relative stereo) [SN00801211] belongs 0.0%; to `CN(C[C@@]12CCC[C@H]1N(C)C(=O)CC2)C(=O)c1ccc2c(c1)OCO2` (relative stereo) [SN00801319], 28.7%.

Turning to `CNC(=O)N1C[C@@H](CN(C)C)[C@@H](C2CCN(CCC(C)C)CC2)C1` (relative stereo) [SN00801505], the “% Inhibition n=1 48h” value is given as 0.0%. Turning to `COc1ccc(-c2nc(CN3C(=O)C(=O)N(C(C)C)C3=O)cs2)cc1` [SN00769384], the “% Inhibition n=1 48h” value is 0.0%. The same measure, in the same setting: to `Cc1oc(-c2ccccc2)nc1C(=O)N1CCN(S(=O)(=O)c2ccc(Br)s2)CC1` [SN00769595] belongs 23.5%; to `O=C(C1CCCN(c2cnccn2)C1)N1CCN(Cc2cccs2)CC1` (centres unmarked) [SN00769722], 17.2%. Turning to `CC(C)(C)OC(=O)N1CCN(C(=O)C2CCCNC2)CC1` (centres unmarked) [SN00769730], the “% Inhibition n=1 48h” value worked out at 15.1%. As to `CC(=O)c1c(C)[nH]c(C(=O)Nc2nc(-c3ccco3)c(-c3ccco3)s2)c1C` [SN00769770], the “Average % Inhibition 24h” value is 25.0%, the “% Inhibition n=1 24h” value is recorded as 21.9%, the “% Inhibition n=2 24h” value came out at 28.1% and the “Average % Inhibition 48h” value came out at 52.7%. For the same compound, the “% Inhibition n=1 48h” value is recorded as 59.6% and the “% Inhibition n=2 48h” value is listed as 45.9%. Take `O=C(Nc1nc(-c2cc3ccccc3oc2=O)cs1)c1cccc(C(F)(F)F)c1` [SN00769798]: the “% Inhibition n=1 48h” value is 0.0%.

With `CC(NC(=O)C1CCOCC1)c1nc(-c2cccnc2)cs1` (centres unmarked) [SN00769908], the “% Inhibition n=1 48h” value is 0.0%. Take `O=C(c1ccc(Cl)c(S(=O)(=O)NCC2CCCO2)c1)N1CC=C(c2ccccc2)CC1` (centres unmarked) [SN00769948]: the “% Inhibition n=1 48h” value came out at 6.8%. Same read-out and setting: the same measure for `O=C(C1CCN(S(=O)(=O)c2ccccc2)CC1)N1CC=C(c2ccccc2)CC1` [SN00769994]: 0.0%; for `CC(C)(C)C(=O)N1CCC(C(=O)N2CC=C(c3ccc(F)cc3)CC2)CC1` [SN00770003]: 0.0%; for `O=C(/C=C/c1cccc([N+](=O)[O-])c1)Nc1ccc2c(c1)nc1n2CCCCC1` [SN00770035]: 0.0%. With `c1ccc(-n2nnnc2N2CCN(C3CC3)CC2)cc1` [SN00770081], the “% Inhibition n=1 48h” value is 0.0%. On the same count and under the same terms, the same measure for `Cc1ccccc1C(=O)N1CCN(C(=O)c2[nH]nc3ccccc23)CC1` [SN00770261]: 25.4%; for `CC(C)n1ncc2c(C(=O)N3CCC(NS(=O)(=O)c4cccs4)CC3)cc(C3CC3)nc21` [SN00770479]: 0.0%; for `CN1CCN(Cc2nc3ccccc3c(=O)n2Cc2nc(-c3cccc([N+](=O)[O-])c3)cs2)CC1` [SN00770541]: 11.4%. Regarding `Cc1cc2n(CC(O)COc3ccccc3F)c(=O)c3ccccc3n2n1` (centres unmarked) [SN00770617], the “% Inhibition n=1 48h” value is 17.7%. With `Cc1csc(/C(=C\c2cc(C)n(-c3ccnn3C(C)C)c2C)CN)n1` [SN00770781], the “% Inhibition n=1 48h” value was found to be 5.0%. Consider `NC(=O)c1cn(Cc2nc(-c3ccoc3)no2)nc1-c1ccccc1` [SN00770936], for which the “% Inhibition n=1 48h” value amounted to 0.0%.

Consider `c1cncc(-c2nc(Sc3nnnn3CC3CCCO3)c3ccccc3n2)c1` (centres unmarked) [SN00771230], for which the “% Inhibition n=1 48h” value came to 11.8%. `Cc1cc2nc(Sc3nnnn3CC3CCCO3)c3ccccc3n2n1` (centres unmarked) [SN00771233]: the “% Inhibition n=1 48h” value was determined as 16.5%.

Take `CCC1c2ccsc2CCN1C(=O)C1CCN(S(=O)(=O)c2ccc(Cl)c([N+](=O)[O-])c2)CC1` (centres unmarked) [SN00771236]: the “% Inhibition n=1 48h” value is 27.8%. On the same count and under the same terms, to `CC1(c2ccco2)NC(=O)N(CC(=O)c2ccccc2)C1=O` (centres unmarked) [SN00771276] belongs 12.8%; to `CC1(c2ccco2)NC(=O)N(NC(=O)c2sc3ccccc3c2Cl)C1=O` (centres unmarked) [SN00771283], 16.0%. With `CCc1ccccc1Nc1nc(N)nc(CN2CCCN(S(=O)(=O)c3ccc(C)cc3)CC2)n1` [SN00771296], the “% Inhibition n=1 48h” value is 10.0%.

`COc1ccc(CN2CCCN(C(=O)c3cn4ccc(C)cc4n3)CC2)cc1` [SN00771379]: the “% Inhibition n=1 48h” value was found to be 0.0%.

For the compound `Cc1cc(C(=O)N2CCCN(c3cccnn3)CC2)c(C)n1C(C)C` [SN00771426], the “% Inhibition n=1 48h” value is given as 0.0%.

As for `CCn1ccnc1CN1CCCN(C(=O)c2cnc(C)cn2)CC1` [SN00771476], the “% Inhibition n=1 48h” value is 10.9%. Regarding `C/C=C/c1ccc(OCC(=O)N2CCCN(C(=O)C3CCCC3)CC2)c(OC)c1` [SN00771493], the “% Inhibition n=1 48h” value came to 16.5%. The same measure, in the same setting: to `CC(=O)N1CCCN(Cc2ncc(Cl)n2C)CC1` [SN00771536] belongs 46.7%; to `COC(=O)CNC(=O)c1cn(-c2ccc(C(F)(F)F)cn2)nn1` [SN00771716], 0.0%; to `c1ccc2sc(N3CCCC3c3nnc4n3CCCCC4)nc2c1` (centres unmarked) [SN00771886], 12.0%.
